Source: patent US8648080B2, “Acid pump antagonist for the treatment of diseases involved in abnormal gastrointestinal motility” (RaQualia Pharma Inc., priority 2009, dated 2014)

Tested on: gastrointestinal motility in the gastric antrum and duodenum
Test: gastrointestinal motility under pentagastrin-stimulated gastric acid secretion in conscious dogs with force transducers
Format: in vivo, Beagle dogs
Experimental: Beagle dogs surgically wearing a force transducer at gastric antrum and serosal side of duodenum were used, and the motion of the gastric antrum and duodenum under wakefulness were observed. After confirming the phase III in the hungry condition, gastric acid secretion was stimulated by pentagastrin subcutaneous infusion (6 microg/kg/hr). Pentagastrin infusion was continued until the end of the study. After about 2 hours from pentagastrin infusion, an acid pump antagonist (compound A) was orally administered, and then gastrointestinal motility was continuously observed for 2-3 hours. In FIG. 1, the horizontal axis represents the time at measuring, and the vertical axis represents the gastrointestinal contraction towards muscle bridge of gastric antrum or duodenum. The phase III contraction disappeared by pentagastrin stimulation, 6 microg/kg/hr, which is known to promote gastric acid secretion; and uncoordinated contraction, which is different from the contraction of postprandial period with solid food, occurred in the stomach and duodenum.

Compound: COCCn1c(C)nc2cc(C(=O)N(C)C)c3c(c21)OC(c1ccccc1)CC3 (single isomer, unassigned; (-)) [compound A, (−)-1-(2-methoxyethyl)-N,N,2-trimethyl-8-phenyl-1,6,7,8-tetrahydrochromeno[7,8-d]imidazole-5-carboxamide]
- effect on gastrointestinal motility (phase III contraction / IMC) (0.3 mg/kg orally, about 2 hours after start of pentagastrin s.c. infusion 6 microg/kg/hr, hungry condition, FIG. 1): the phase III contraction occurred in the stomach and duodenum
- time after administration at which phase III contraction occurred (0.3 mg/kg orally, pentagastrin infusion 6 microg/kg/hr, stomach and duodenum): one

Compound: Cc1cccc(C)c1CNc1cc(C(=O)NCCO)cn2c(C)c(C)nc12 [AZD0865, 8-[{2,6-dimethylbenzyl}amino]-N-[2-hydroxyethyl]-2,3-dimethyl-imidazo[1,2-a]pyridin-6-carboxamide]
- time after dosing until irregular contraction tended to subside (1.5 mg/kg orally, pentagastrin infusion, method as Example 1): one
- effect on gastrointestinal motility (phase III contraction / IMC) (1.5 mg/kg orally, pentagastrin infusion, method as Example 1, FIG. 4): IMC occurred

Compound: Cc1nc2c(O[C@H]3CCOc4cc(F)cc(F)c43)cc(C(=O)N(C)C)cc2[nH]1 [compound B, (S)-(−)-4-[(5,7-difluoro-3,4-dihydro-2H-chromen-4-yl)oxy]-N,N,2-trimethyl-1H-benzimidazole-6-carboxamide]
- time after dosing until IMC occurred (1 mg/kg orally, pentagastrin infusion, method as Example 1): one
- effect on gastrointestinal motility (phase III contraction / IMC) (1 mg/kg orally, pentagastrin infusion, method as Example 1, FIG. 2): IMC occurred

Compound: Cc1nc(Nc2ccc(F)cc2)nc(N2CCc3ccccc3C2C)c1C.Cl (centres unmarked) [revaprazan, 5,6-dimethyl-2-(4-fluoro-phenylamino)-4-(1-methyl-1,2,3,4-tetrahydroisoquinoline-2-yl)pyrimidine hydrochloride]
- time after dosing until irregular contraction tended to subside (10 mg/kg orally, pentagastrin infusion, method as Example 1): one
- effect on gastrointestinal motility (phase III contraction / IMC) (10 mg/kg orally, pentagastrin infusion, method as Example 1, FIG. 3): IMC occurred
